Numbered stars: 1 amine (or outer) side, 2 acyl side, 3 side chain; on linkers, the order of the positions; unused ones are H or OH. Bridge positions count the residues as written; N and C are the ends. Square brackets hold non-standard residues; d marks the D form. Peptide text beside a SMILES is read from it. I, II: the chains in the order shown. Phe(3,4-Cl2) = N[C@@H](Cc1ccc(Cl)c(Cl)c1)C(=O)O; Phe(2,4-Cl2) = N[C@@H](Cc1ccc(Cl)cc1Cl)C(=O)O; 1Nal = N[C@@H](Cc1cccc2ccccc12)C(=O)O; 2Nal = N[C@@H](Cc1ccc2ccccc2c1)C(=O)O; Diglycolyl = O=C(COCC(=O)[*:2])[*:1]; NMeR = CN[C@@H](CCCNC(=N)N)C(=O)O; Pen = CC(C)(S)[C@H](N)C(=O)O; dNMeK = CN[C@H](CCCCN)C(=O)O
How the values were obtained:
[1] = target: T1, rh integrin α4β7 (Homo sapiens, UniProt P13612+P26010); assay: α4β7-MAdCAM Competition ELISA; format: binding; settings: Table 3-B, Potency (α4β7); range classes; read-out: α4β7 ELISA IC50
T1 construct: purchased R&D Systems 5397-A30
Outline: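 Competition read-out was A450 after anti-human IgG1-HRP and TMB detection of bound recombinant human MAdCAM-1 (10 nM final). Peptides were serially diluted 3-fold from a final 10 μM and equilibrated 1 h at room temperature on nickel-captured α4β7 (800 ng/well). The buffer was Tris pH 7.6 with 1 mM Mn2+ or Mg2+.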

[2] = target: T2, α4β1 (Homo sapiens, UniProt P05556+P13612, DEL729-798); assay: α4β1-VCAM Competition ELISA; format: binding; settings: Table 3-B, Selectivity (α4β1); range classes; read-out: α4β1 ELISA IC50
T2 construct: purchased R&D Systems 5668-A4
Protocol: A Nunc MaxiSorp plate was coated with rh VCAM-1/CD106 Fc chimera (R&D #862-VC) at 400 ng/well in 50 ul per well in 1×PBS and incubated overnight at 4° C. The solution was removed by shaking and then blocked with 250 ul of 1% BSA in 1×PBS per well. The wells were then incubated at room temperature for 1 hr with shaking. Each well was then washed once with wash buffer (50 mM Tris-HCl pH7.6, 100 mM NaCL, 1 mM MnCl2 or MgCl2, 0.05% Tween-20). 25 ul of serial dilutions of peptides starting at 200 μM in assay buffer (Assay buffer: 50 mM Tris-HCl pH7.6, 100 mM NaCl, 1 mM MnCl2 or MgCl2, 0.05% Tween-20) was added to each well. Additionally, 25 ul of α4β1 (R&D Systems #5668-A4) was added to each well at a fixed concentration of 120 nM. The final peptide and α4β1 concentrations were 100 μM and 60 nM, respectively. The plates were then incubated at 37° C. for 2 hr. The solution was then removed by shaking, and each well was washed three times with wash buffer. 50 ul of 9F10 antibody at 4 ug/ml (purified mouse anti-human CD49d, BD Bioscience Cat#555502) was then added to each well, and the plate was incubated at room temperature for 1 hr with shaking. The solution was again removed by shaking, and each well was washed three times with wash buffer. 50 ul of peroxidase-conjugated AffiniPure Goat anti-mouse IgG (Jackson immune research cat #115-035-003) diluted in 1:5000 in assay buffer was added to each well. The plate was incubated at room temperature for 30 min with shaking. Each well was then washed 3 times with wash buffer. 100 ul of TMB was then added to each well and closely observe during developing time. The reaction was stepped with 2N H2SO4 and absorbance was read at 450 nm.

[3] = Simulated Intestinal Fluid (SIF) Stability Assay; format: in vitro ADME, porcine; settings: > means experiment was stopped at that time and half life was not reached; for half-life at 22 μM: pig, simulated intestinal fluid (SIF) with 1% porcine pancreatin, pH 6.5, Table 3-B, read-out: Stabilty SIF t1/2
Outline: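 Intestinal stability: percent peptide remaining over time, by LC-MS/MS peak-area ratio to internal standard, fitted to first-order decay for half-life. Conditions: 22 μM peptide, 1% pancreatin in pH 6.5 blank FASSIF, 37 °C.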

[4] = target: α4β7 (Homo sapiens, UniProt P13612+P26010); assay: α4β7-MAdCAM Cell Adhesion Assay (RPMI 8866 human cells); format: cell-based; design: host or cells: RPMI 8866 human B lymphoblastoid cells; settings: Table 3-B, Potency (α4β7); range classes; read-out: α4β7 cell (Hu) IC50
Outline: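 Adhesion read-out: MTT absorbance at 570 nm minus no-cell wells, after three washes. Plates coated with rh MAdCAM-1/Fc received peptide dilutions plus 200,000 RPMI 8866 cells in Mn2+ (1 mM)-supplemented DMEM, 0.1% BSA, HEPES pH 7, incubated 30-45 min, 37 °C.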

T2 sequence (P13612 34-977 limits assumed, stated change not applied): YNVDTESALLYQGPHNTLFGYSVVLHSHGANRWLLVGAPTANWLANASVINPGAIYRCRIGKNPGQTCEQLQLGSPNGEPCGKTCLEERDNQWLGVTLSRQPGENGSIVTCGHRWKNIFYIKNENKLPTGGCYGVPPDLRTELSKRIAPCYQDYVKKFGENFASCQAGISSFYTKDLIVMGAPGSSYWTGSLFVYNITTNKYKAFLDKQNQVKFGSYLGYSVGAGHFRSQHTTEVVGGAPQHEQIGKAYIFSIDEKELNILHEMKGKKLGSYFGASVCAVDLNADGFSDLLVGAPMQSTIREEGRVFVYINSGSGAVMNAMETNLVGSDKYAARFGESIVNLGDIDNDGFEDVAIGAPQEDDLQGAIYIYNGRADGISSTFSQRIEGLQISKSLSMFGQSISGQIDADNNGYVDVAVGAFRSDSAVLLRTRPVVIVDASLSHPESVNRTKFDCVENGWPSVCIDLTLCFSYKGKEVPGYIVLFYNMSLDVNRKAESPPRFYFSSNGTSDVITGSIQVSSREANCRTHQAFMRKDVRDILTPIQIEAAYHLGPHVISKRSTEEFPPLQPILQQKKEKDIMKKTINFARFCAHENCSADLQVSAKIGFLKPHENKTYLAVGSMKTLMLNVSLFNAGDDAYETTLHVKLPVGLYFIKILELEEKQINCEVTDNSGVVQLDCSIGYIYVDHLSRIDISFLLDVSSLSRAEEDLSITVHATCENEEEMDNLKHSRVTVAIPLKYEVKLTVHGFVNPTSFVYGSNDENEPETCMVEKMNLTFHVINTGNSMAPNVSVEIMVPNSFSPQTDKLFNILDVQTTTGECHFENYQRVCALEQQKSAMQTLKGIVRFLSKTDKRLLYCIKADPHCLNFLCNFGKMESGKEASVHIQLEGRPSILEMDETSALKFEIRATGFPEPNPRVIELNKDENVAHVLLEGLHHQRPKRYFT
T2 sequence (P05556 21-728 limits assumed, stated change not applied): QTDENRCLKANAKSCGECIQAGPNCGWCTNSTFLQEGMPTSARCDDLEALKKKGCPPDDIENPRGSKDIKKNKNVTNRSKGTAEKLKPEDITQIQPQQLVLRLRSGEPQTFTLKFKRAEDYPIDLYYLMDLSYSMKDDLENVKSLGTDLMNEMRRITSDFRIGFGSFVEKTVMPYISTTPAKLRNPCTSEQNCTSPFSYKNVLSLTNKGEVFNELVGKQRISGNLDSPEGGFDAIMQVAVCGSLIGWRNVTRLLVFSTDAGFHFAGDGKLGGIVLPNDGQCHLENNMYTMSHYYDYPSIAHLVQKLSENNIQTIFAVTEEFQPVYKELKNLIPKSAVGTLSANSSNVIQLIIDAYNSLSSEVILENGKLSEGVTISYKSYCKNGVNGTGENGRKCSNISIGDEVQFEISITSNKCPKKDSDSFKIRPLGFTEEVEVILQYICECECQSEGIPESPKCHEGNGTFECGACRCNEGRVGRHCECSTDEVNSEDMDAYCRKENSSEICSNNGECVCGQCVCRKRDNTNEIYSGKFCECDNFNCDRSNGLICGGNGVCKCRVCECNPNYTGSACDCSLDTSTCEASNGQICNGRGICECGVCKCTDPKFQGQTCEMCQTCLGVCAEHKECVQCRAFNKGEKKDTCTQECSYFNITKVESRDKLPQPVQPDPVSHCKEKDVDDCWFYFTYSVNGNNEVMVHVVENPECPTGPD
T1 sequence (P13612 34-977 limits assumed): as the sequence (P13612 34-977 limits assumed, stated change not applied) above
T1 sequence (P26010 20-723 limits assumed): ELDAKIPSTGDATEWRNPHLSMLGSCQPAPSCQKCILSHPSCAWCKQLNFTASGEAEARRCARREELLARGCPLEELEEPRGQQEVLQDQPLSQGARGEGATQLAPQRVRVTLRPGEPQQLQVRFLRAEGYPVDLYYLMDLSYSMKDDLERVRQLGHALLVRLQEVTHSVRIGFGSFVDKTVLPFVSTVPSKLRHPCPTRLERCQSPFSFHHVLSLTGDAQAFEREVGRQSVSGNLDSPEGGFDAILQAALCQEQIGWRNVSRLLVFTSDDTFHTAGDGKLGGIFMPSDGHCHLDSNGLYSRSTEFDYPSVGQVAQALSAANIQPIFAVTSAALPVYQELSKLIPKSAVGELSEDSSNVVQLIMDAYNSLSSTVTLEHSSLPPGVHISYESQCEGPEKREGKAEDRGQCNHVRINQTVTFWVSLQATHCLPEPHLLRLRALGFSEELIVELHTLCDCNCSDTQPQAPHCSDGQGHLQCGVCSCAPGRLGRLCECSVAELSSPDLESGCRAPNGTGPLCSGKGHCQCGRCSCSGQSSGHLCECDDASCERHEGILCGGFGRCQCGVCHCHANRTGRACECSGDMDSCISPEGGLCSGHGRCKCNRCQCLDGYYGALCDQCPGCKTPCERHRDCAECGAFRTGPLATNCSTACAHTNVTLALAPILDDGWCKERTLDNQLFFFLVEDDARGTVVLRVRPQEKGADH
Sequence of α4β7 (P13612 34-1032): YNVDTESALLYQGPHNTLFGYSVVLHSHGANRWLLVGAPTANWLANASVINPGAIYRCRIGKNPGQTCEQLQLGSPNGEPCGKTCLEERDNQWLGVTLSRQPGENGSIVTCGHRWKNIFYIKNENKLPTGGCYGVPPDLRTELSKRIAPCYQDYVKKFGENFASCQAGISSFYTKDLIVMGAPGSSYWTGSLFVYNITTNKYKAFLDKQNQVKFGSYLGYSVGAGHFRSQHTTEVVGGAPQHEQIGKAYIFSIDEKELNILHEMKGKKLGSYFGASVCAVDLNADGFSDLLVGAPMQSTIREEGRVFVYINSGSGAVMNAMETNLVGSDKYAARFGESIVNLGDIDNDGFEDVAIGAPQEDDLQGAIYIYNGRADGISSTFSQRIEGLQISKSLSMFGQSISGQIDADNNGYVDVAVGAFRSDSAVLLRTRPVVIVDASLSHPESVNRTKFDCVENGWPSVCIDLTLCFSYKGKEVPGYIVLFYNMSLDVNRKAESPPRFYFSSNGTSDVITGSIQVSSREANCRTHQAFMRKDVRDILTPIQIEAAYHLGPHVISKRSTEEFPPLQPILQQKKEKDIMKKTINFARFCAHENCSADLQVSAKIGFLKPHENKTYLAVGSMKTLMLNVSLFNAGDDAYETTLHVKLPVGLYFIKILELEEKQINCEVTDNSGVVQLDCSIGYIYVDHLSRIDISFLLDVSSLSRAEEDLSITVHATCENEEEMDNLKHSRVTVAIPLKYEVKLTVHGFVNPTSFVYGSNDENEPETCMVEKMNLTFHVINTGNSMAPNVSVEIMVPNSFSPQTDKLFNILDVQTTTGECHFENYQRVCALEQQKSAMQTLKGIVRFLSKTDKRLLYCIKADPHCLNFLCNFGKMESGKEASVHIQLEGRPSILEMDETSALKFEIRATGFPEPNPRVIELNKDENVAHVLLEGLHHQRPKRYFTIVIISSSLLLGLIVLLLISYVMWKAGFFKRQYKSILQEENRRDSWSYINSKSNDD
Sequence of α4β7 (P26010 20-798): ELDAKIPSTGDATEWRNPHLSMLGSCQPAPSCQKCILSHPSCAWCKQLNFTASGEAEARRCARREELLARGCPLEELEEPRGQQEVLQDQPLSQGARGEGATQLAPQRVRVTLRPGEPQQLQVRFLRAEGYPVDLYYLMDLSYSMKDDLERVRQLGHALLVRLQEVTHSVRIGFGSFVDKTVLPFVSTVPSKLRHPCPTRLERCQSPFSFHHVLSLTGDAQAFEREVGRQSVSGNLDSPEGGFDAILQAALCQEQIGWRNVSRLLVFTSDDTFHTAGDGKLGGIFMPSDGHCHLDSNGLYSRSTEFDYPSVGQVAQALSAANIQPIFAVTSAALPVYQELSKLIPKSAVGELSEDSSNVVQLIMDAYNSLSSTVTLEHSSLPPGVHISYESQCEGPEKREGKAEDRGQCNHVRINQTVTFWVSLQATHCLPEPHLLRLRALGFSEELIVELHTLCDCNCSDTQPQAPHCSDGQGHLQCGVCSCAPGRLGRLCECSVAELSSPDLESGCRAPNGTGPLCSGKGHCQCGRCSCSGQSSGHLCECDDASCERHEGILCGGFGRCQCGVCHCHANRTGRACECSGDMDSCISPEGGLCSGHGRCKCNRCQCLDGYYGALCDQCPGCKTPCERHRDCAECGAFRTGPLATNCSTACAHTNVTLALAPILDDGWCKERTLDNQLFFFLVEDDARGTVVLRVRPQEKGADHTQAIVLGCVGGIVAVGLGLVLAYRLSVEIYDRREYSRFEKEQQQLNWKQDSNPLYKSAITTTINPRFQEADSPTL

Structure (SMILES) | IC50 [1] | IC50 [2] | Stabilty SIF t1/2 ([3]; Table 3-B) | half-life at 22 μM [3] | IC50 [4]
CC(=O)N[C@@H]1C(=O)N(C)[C@@H](CCCNC(=N)N)C(=O)N[C@@H](CO)C(=O)N[C@@H](CC(=O)O)C(=O)N[C@@H]([C@@H](C)O)C(=O)N[C@@H](CC(C)C)C(=O)N[C@H](C(=O)N[C@@H](Cc2ccc(Cl)cc2Cl)C(=O)N[C@@H](CCC(=O)O)C(=O)N[C@H](CCCCNC(=O)COCC(=O)NCCCC[C@@H](NC(=O)[C@H](CCC(=O)O)NC(=O)[C@H](Cc2ccc(Cl)cc2Cl)NC(=O)[C@H]2NC(=O)[C@H](CC(C)C)NC(=O)[C@H]([C@@H](C)O)NC(=O)[C@H](CC(=O)O)NC(=O)[C@H](CO)NC(=O)[C@H](CCCNC(=N)N)N(C)C(=O)[C@@H](NC(C)=O)C(C)(C)SSC2(C)C)C(N)=O)C(N)=O)C(C)(C)SSC1(C)C [compound 42] (I: Ac-[Pen][NMeR]SDTL[Pen][Phe(2,4-Cl2)]E[dK]-NH2 / II: Ac-[Pen][NMeR]SDTL[Pen][Phe(2,4-Cl2)]E[dK]-NH2; disulfide I:1-I:7, II:1-II:7; linker I:10-II:10 via Diglycolyl) | < 10 nM | 100 to 500 nM | 49 min | 51 min | < 10 nM
CC(=O)N[C@@H]1C(=O)N(C)[C@@H](CCCNC(=N)N)C(=O)N[C@@H](CO)C(=O)N[C@@H](CC(=O)O)C(=O)N[C@@H]([C@@H](C)O)C(=O)N[C@@H](CC(C)C)C(=O)N[C@H](C(=O)N[C@@H](Cc2cccc3ccccc23)C(=O)N[C@H](CCC(=O)O)C(=O)N(C)[C@H](CCCCNC(=O)COCC(=O)NCCCC[C@H](C(N)=O)N(C)C(=O)[C@@H](CCC(=O)O)NC(=O)[C@H](Cc2cccc3ccccc23)NC(=O)[C@H]2NC(=O)[C@H](CC(C)C)NC(=O)[C@H]([C@@H](C)O)NC(=O)[C@H](CC(=O)O)NC(=O)[C@H](CO)NC(=O)[C@H](CCCNC(=N)N)N(C)C(=O)[C@@H](NC(C)=O)C(C)(C)SSC2(C)C)C(N)=O)C(C)(C)SSC1(C)C [compound 38] (I: Ac-[Pen][NMeR]SDTL[Pen][1Nal][dE][dNMeK]-NH2 / II: Ac-[Pen][NMeR]SDTL[Pen][1Nal][dE][dNMeK]-NH2; disulfide I:1-I:7, II:1-II:7; linker I:10-II:10 via Diglycolyl) | < 10 nM | 100 to 500 nM |  | > 180 min | < 10 nM
CC(=O)N[C@@H]1C(=O)N(C)[C@@H](CCCNC(=N)N)C(=O)N[C@@H](CO)C(=O)N[C@@H](CC(=O)O)C(=O)N[C@@H]([C@@H](C)O)C(=O)N[C@@H](CC(C)C)C(=O)N[C@H](C(=O)N[C@@H](Cc2ccc(Cl)c(Cl)c2)C(=O)N[C@@H](CCC(=O)O)C(=O)N[C@H](CCCCNC(=O)COCC(=O)NCCCC[C@@H](NC(=O)[C@H](CCC(=O)O)NC(=O)[C@H](Cc2ccc(Cl)c(Cl)c2)NC(=O)[C@H]2NC(=O)[C@H](CC(C)C)NC(=O)[C@H]([C@@H](C)O)NC(=O)[C@H](CC(=O)O)NC(=O)[C@H](CO)NC(=O)[C@H](CCCNC(=N)N)N(C)C(=O)[C@@H](NC(C)=O)C(C)(C)SSC2(C)C)C(N)=O)C(N)=O)C(C)(C)SSC1(C)C [compound 43] (I: Ac-[Pen][NMeR]SDTL[Pen][Phe(3,4-Cl2)]E[dK]-NH2 / II: Ac-[Pen][NMeR]SDTL[Pen][Phe(3,4-Cl2)]E[dK]-NH2; disulfide I:1-I:7, II:1-II:7; linker I:10-II:10 via Diglycolyl) | < 10 nM | 100 to 500 nM |  | 21 min | 10 to 25 nM
CC(=O)N[C@@H]1C(=O)N(C)[C@@H](CCCNC(=N)N)C(=O)N[C@@H](CO)C(=O)N[C@@H](CC(=O)O)C(=O)N[C@@H]([C@@H](C)O)C(=O)N[C@@H](CC(C)C)C(=O)N[C@H](C(=O)N[C@@H](Cc2cccc3ccccc23)C(=O)N[C@@H](CCC(=O)O)C(=O)N[C@H](CCCCNC(=O)COCC(=O)NCCCC[C@@H](NC(=O)[C@H](CCC(=O)O)NC(=O)[C@H](Cc2cccc3ccccc23)NC(=O)[C@H]2NC(=O)[C@H](CC(C)C)NC(=O)[C@H]([C@@H](C)O)NC(=O)[C@H](CC(=O)O)NC(=O)[C@H](CO)NC(=O)[C@H](CCCNC(=N)N)N(C)C(=O)[C@@H](NC(C)=O)C(C)(C)SSC2(C)C)C(N)=O)C(N)=O)C(C)(C)SSC1(C)C [compound 24] (I: Ac-[Pen][NMeR]SDTL[Pen][1Nal]E[dK]-NH2 / II: Ac-[Pen][NMeR]SDTL[Pen][1Nal]E[dK]-NH2; disulfide I:1-I:7, II:1-II:7; linker I:10-II:10 via Diglycolyl) | < 10 nM | 100 to 500 nM |  | 56 min | < 10 nM
CC(=O)N[C@@H]1C(=O)N(C)[C@@H](CCCNC(=N)N)C(=O)N[C@@H](CO)C(=O)N[C@@H](CC(=O)O)C(=O)N[C@@H]([C@@H](C)O)C(=O)N[C@@H](CC(C)C)C(=O)N[C@H](C(=O)N[C@@H](Cc2ccc(O)cc2)C(=O)N[C@@H](CCC(=O)O)C(=O)N[C@H](CCCCNC(=O)COCC(=O)NCCCC[C@@H](NC(=O)[C@H](CCC(=O)O)NC(=O)[C@H](Cc2ccc(O)cc2)NC(=O)[C@H]2NC(=O)[C@H](CC(C)C)NC(=O)[C@H]([C@@H](C)O)NC(=O)[C@H](CC(=O)O)NC(=O)[C@H](CO)NC(=O)[C@H](CCCNC(=N)N)N(C)C(=O)[C@@H](NC(C)=O)C(C)(C)SSC2(C)C)C(N)=O)C(N)=O)C(C)(C)SSC1(C)C [compound 22] (I: Ac-[Pen][NMeR]SDTL[Pen]YE[dK]-NH2 / II: Ac-[Pen][NMeR]SDTL[Pen]YE[dK]-NH2; disulfide I:1-I:7, II:1-II:7; linker I:10-II:10 via Diglycolyl) | < 10 nM | 100 to 500 nM |  | < 20 min | < 10 nM
CC(=O)N[C@@H]1C(=O)N(C)[C@@H](CCCNC(=N)N)C(=O)N[C@@H](CO)C(=O)N[C@@H](CC(=O)O)C(=O)N[C@@H]([C@@H](C)O)C(=O)N[C@@H](CC(C)C)C(=O)N[C@H](C(=O)N[C@@H](Cc2ccc3ccccc3c2)C(=O)N[C@@H](CCC(=O)O)C(=O)N(C)[C@H](CCCCNC(=O)COCC(=O)NCCCC[C@H](C(N)=O)N(C)C(=O)[C@H](CCC(=O)O)NC(=O)[C@H](Cc2ccc3ccccc3c2)NC(=O)[C@H]2NC(=O)[C@H](CC(C)C)NC(=O)[C@H]([C@@H](C)O)NC(=O)[C@H](CC(=O)O)NC(=O)[C@H](CO)NC(=O)[C@H](CCCNC(=N)N)N(C)C(=O)[C@@H](NC(C)=O)C(C)(C)SSC2(C)C)C(N)=O)C(C)(C)SSC1(C)C [compound 41] (I: Ac-[Pen][NMeR]SDTL[Pen][2Nal]E[dNMeK]-NH2 / II: Ac-[Pen][NMeR]SDTL[Pen][2Nal]E[dNMeK]-NH2; disulfide I:1-I:7, II:1-II:7; linker I:10-II:10 via Diglycolyl) | < 10 nM | 100 to 500 nM |  | > 180 min | < 10 nM
CC(=O)N[C@@H]1C(=O)N(C)[C@@H](CCCNC(=N)N)C(=O)N[C@@H](CO)C(=O)N[C@@H](CC(=O)O)C(=O)N[C@@H]([C@@H](C)O)C(=O)N[C@@H](CC(C)C)C(=O)N[C@H](C(=O)N[C@@H](Cc2cccc3ccccc23)C(=O)N[C@H](CCC(=O)O)C(=O)N[C@H](CCCCNC(=O)COCC(=O)NCCCC[C@@H](NC(=O)[C@@H](CCC(=O)O)NC(=O)[C@H](Cc2cccc3ccccc23)NC(=O)[C@H]2NC(=O)[C@H](CC(C)C)NC(=O)[C@H]([C@@H](C)O)NC(=O)[C@H](CC(=O)O)NC(=O)[C@H](CO)NC(=O)[C@H](CCCNC(=N)N)N(C)C(=O)[C@@H](NC(C)=O)C(C)(C)SSC2(C)C)C(N)=O)C(N)=O)C(C)(C)SSC1(C)C [compound 32] (I: Ac-[Pen][NMeR]SDTL[Pen][1Nal][dE][dK]-NH2 / II: Ac-[Pen][NMeR]SDTL[Pen][1Nal][dE][dK]-NH2; disulfide I:1-I:7, II:1-II:7; linker I:10-II:10 via Diglycolyl) | < 10 nM | 100 to 500 nM |  | > 180 min | 10 to 25 nM
